Results on 29 molecules are retold here after patent US7629376B2, “3-substituted-5- and 6-aminoalkyl indole-2-carboxylic acid amides and related analogs as inhibitors of casein kinase I” (Aventis Pharmaceuticals Inc., priority 2004, dated 2009).

The structures appear in SMILES notation. pKi: −log10 of the molar value.

The target of the test is T1, casein kinase 1ε (Homo sapiens, UniProt P49674).
T1 construct: made in house
As to the kind of experiment: Casein Kinase Epsilon 33P-ATP Filter Plate Assay for Screening CK1ε Inhibitors. The format is biochemical.

T1 sequence (P49674 whole entry): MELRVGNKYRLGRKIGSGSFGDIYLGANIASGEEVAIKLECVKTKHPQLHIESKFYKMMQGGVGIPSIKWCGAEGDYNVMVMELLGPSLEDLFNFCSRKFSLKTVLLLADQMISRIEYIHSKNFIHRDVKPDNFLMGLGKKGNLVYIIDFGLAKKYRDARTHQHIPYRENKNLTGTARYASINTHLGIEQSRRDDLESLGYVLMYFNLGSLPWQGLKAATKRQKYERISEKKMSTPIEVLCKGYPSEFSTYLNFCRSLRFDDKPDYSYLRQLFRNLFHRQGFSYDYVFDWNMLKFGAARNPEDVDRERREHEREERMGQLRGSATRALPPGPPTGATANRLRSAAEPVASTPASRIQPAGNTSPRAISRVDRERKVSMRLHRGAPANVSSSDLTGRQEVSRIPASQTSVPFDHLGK
Experimental: Casein Kinase Epsilon ^33P-ATP Filter Plate Assay for Screening CK1ε Inhibitors
Purpose: This assay measures the ability of compounds to inhibit the phosphorylation of the substrate casein by the enzyme casein kinase 1ε using an in vitro ^33P-ATP filtration assay.
The above are stored as 100 μL aliquots at minus 80° C. • Compounds: • Supply compounds for testing as frozen 10 mM compound stock dissolved in 100% DMSO. Assay Conditions: • Final total assay volume per well is equal to 50 μL that one prepares as follows: • 5 μL of diluted compound stock (10, 1, 0.1, 0.01 or 0.001 μM), • 5 μL of dephosphorylated casein final concentration 0.2 μg/μL, • 20 μL of CK1ε final concentration 3 ng/μL, and • 20 μL of γ-^33P-ATP final concentration 0.02 μCi/μL mixed with cold ATP (10 μM final). Methodology: • 1. Prepare 500 mL of fresh assay buffer: 50 mM Tris pH 7.5, 10 nm MgCl2, 2 mM DTT and 1 mM EGTA • 2. Obtain compounds to be evaluated as 10 μL of 10 mM stock dissolved in 100% DMSO. Use a Biomek 2000 liquid handling robot, make serial dilutions to yield 10, 1, 0.1, 0.01 and 0.001 μM final compound dilutions added as 5 μL additions to Falcon U bottom plates. […] A routine screening assay will consist of 32 compounds, which equals 4 assay plates. • 3.
• 4. Add 5 μL of compound as indicated, then add 5 μL of dephosphorylated casein (dissolved in distilled H20) (0.2 μg/μL) and 20 μL CK1ε (3 ng/μL) to the appropriate wells. • 5. Finally add 20 μL γ-^33P-ATP (0.02 μCi/μL)/10 μM cold ATP (equals approximately 2×10^6 CPM per well). • 6. Vortes the Falcon U-Bottom assay plate containing the above 50 μL reaction volume and then incubate at room temperature for 2 hours. • 7. At the end of 2 hours, stop the reaction by the addition of 65 μL of ice cold 2 mM cold ATP (made up in assay buffer) to the assay plates using a Beckman Multimek. • 8. At the same time add 25 μL 100% ice cold TCA made up in distilled H20 to a matching number of Millipore MAPH filter plates. • 9. Using a handheld 8-channel pipettor, transfer 100 μL of the reaction mixture from the Falcon U-Bottom Plate to the Millipore MAPH filter plates presoaked with TCA. • 10. Mix the Millipore MAPH filter plates gently and allow to sit at room temperature for at least 30 minutes to precipitate the proteins. • 11. After 30 minutes, place the filter plates on a Millipore vacuum manifold and filter at no more than 8 mm Hg as the MAPH filters tend to “air lock” at higher vacuum settings. • 12. […] Allow the plates to dry overnight at room temperature. The next day add 40 μL Packard Microscint-20 Scintillation Fluid per well using a Titertek Multidrop dispenser; seal the plates and count for 2 minutes/well in a Packard Topcount NXT Scintillation Counter (to provide CPM values/well). Calculation: • 1. Import Counts Per Minute (CPM) data into a proprietary data calculation and archiving database (Activity Base by IDBS version 5.0). • 2. Column 1 for each plate reflects total phosphorylation activity of the enzyme in the absence of any inhibiting compound and thus represents 100%. Column 12 reflects any nonspecific phosphorylation/retained radioactivity activity in the absence of inhibiting compound and enzyme. Typically one observes approximately 1% of Total CPMs that are “nonspecific”. • 3.

As a reminder, the pKi is −log10 of the Ki, conventionally taken in molar units. Low readings indicate a high Ki, high ones a low Ki. As for `NC(=O)c1[nH]c2ccc(CNc3cccc(C(F)(F)F)c3)cc2c1Sc1ccccc1` [Iac, 3-Phenylsulfanyl-5-[(3-trifluoromethyl-phenylamino)methyl]-1H-indole-2-carboxylic acid amide], the pKi is roughly 5.00.
Under `COc1ccc(CNCc2ccc3c(Sc4ccccc4)c(C(N)=O)[nH]c3c2)cc1` [IIg, 6-[(4-Methoxybenzylamino)methyl]-3-phenylsulfanyl-1H-indole-2-carboxylic acid amide] stands 6.28.
On to `NC(=O)c1[nH]c2cc(CNCc3ccc(C(F)(F)F)cc3)ccc2c1Sc1ccccc1` [IIm, 3-Phenalsulfanyl-6-[(4-trifluoromethylbenzylamino)methyl]-1H-indole-2-carboxylic acid amide], for which the pKi is 5.31.
Molecule `Cc1cccc(CNCc2ccc3c(Sc4ccccc4)c(C(N)=O)[nH]c3c2)c1` [IIaa, 6-[(3-Methylbenzylamino)methyl]-3-phenylsulfanyl-1H-indole-2-carboxylic acid amide] gave a pKi of 6.34.
On to `NC(=O)c1[nH]c2cc(CNCc3ccc(-c4ccccc4)cc3)ccc2c1Sc1ccccc1` [IIj, 6-{[(Biphenyl-4-ylmethyl)amino]methyl}-3-phenylsulfanyl-1H-indole-2-carboxylic acid amide], for which the negative-log Ki (pKi) was 5.86.
As for `COc1ccc(CNCc2ccc3c(Sc4ccccc4)c(C(N)=O)[nH]c3c2)cc1OCc1ccccc1` [IIak, 6-[(3-Benzyloxy-4-methoxybenzylamino)methyl]-3-phenylsulfanyl-1H-indole-2-carboxylic acid amide], the figure is 6.19.
As for `NC(=O)c1[nH]c2cc(CNCc3ccc(Br)cc3)ccc2c1Sc1ccccc1` [IIh, 6-[(4-Bromobenzylamino)methyl]-3-phenylsulfanyl-1H-indole-2-carboxylic acid amide], the figure is 6.13; as for `NC(=O)c1[nH]c2cc(CNCc3cccn3S(=O)(=O)c3ccccc3)ccc2c1Sc1ccccc1` [IIas, 6-{[(1-Benzenesulfonyl-1H-pyrrol-2-ylmethyl)amino]methyl}-3-phenylsulfanyl-1H-indole-2-carboxylic acid amide], 5.20.
As for `COc1ccc(CNCc2ccc3c(Sc4ccccc4)c(C(N)=O)[nH]c3c2)c(OC)c1` [IIw, 6-[(2,4-Dimethoxybenzylamino)methyl]-3-phenylsulfanyl-1H-indole-2-carboxylic acid amide], the figure is 6.54.
On to `NC(=O)c1[nH]c2ccc(CN3CCN(c4ccc(F)cc4)CC3)cc2c1Sc1ccccc1` [Iaa, 5-[4-(4-Fluorophenyl)piperazin-1-ylmethyl]-3-phenylsulfanyl-1H-indole-2-carboxylic acid amide], for which the negative-log Ki (pKi) is less than 5.00.
Under `NC(=O)c1[nH]c2ccc(CN3CCCC(C(N)=O)C3)cc2c1Sc1ccccc1` (centres unmarked) [Io, 5-(3-Carbamoylpiperidin-1-ylmethyl)-3-phenylsulfanyl-1H-indole-2-carboxylic acid amide] stands roughly 5.00; under `CC(N)C(=O)NCc1ccc2c(Sc3ccccc3)c(C(N)=O)[nH]c2c1` (centres unmarked) [IIo, 6-[(2-Aminopropionylamino)methyl]-3-phenylsulfanyl-1H-indole-2-carboxylic acid amide], 6.77; under `CCNCc1ccc2[nH]c(C(N)=O)c(Sc3ccccc3)c2c1` [Iad, 5-Ethylaminomethyl-3-phenylsulfanyl-1H-indole-2-carboxylic acid amide], 7.05.
As for `NC(=O)c1[nH]c2ccc(CN3CCCC3CO)cc2c1Sc1ccccc1` (centres unmarked) [Iw, 5-(2-Hydroxymethyl-pyrrolidin-1-ylmethyl)-3-phenylsulfanyl-1H-indole-2-carboxylic acid amide], the figure is 7.19; as for `NC(=O)c1[nH]c2cc(CN(Cc3ccc([N+](=O)[O-])o3)Cc3ccc([N+](=O)[O-])o3)ccc2c1Sc1ccccc1` [IIat, 6-{[Bis-(5-nitrofuran-2-ylmethyl)amino]methyl}-3-phenylsulfanyl-1H-indole-2-carboxylic acid amide], less than 5.00; as for `COc1cccc(CNCc2ccc3c(Sc4ccccc4)c(C(N)=O)[nH]c3c2)c1` [IIy, 6-[(3-Methoxybenzylamino)methyl]-3-phenylsulfanyl-1H-indole-2-carboxylic acid amide], 6.42.
Under `CCCCc1ccc(NCc2ccc3[nH]c(C(N)=O)c(Sc4ccccc4)c3c2)cc1` [Iah, 5-[(4-Butylphenylamino)methyl]-3-phenylsulfanyl-1H-indole-2-carboxylic acid amide] stands 5.37; under `CC(CO)(CO)NCc1ccc2[nH]c(C(N)=O)c(Sc3ccccc3)c2c1` [Iv, 5-[(2-Hydroxy-1-hydroxymethyl-1-methyl-ethylamino)methyl]-3-phenylsulfanyl-1H-indole-2-carboxylic acid amide], 6.44.
For `COC(=O)c1ccc(CNCc2ccc3c(Sc4ccccc4)c(C(N)=O)[nH]c3c2)cc1` [IIam, 4-{[(2-Carbamoyl-3-phenylsulfanyl-1H-indol-6-ylmethyl)amino]methyl}benzoic acid methyl ester], the negative-log Ki (pKi) was 5.62. Against the preceding molecule, the pKi is 0.82 log units lower.
Molecule `COc1cccc(NCc2ccc3[nH]c(C(N)=O)c(Sc4ccccc4)c3c2)c1` [Iag, 5-[(3-Methoxyphenylamino)methyl]-3-phenylsulfanyl-1H-indole-2-carboxylic acid amide] gave a pKi of 5.65.
As for `NC(=O)c1[nH]c2cc(CNC(=O)[C@@H](N)Cc3c[nH]c4ccccc34)ccc2c1Sc1ccccc1` [IIs], the pKi was 7.00.
As for `NC(=O)c1[nH]c2cc(CNCc3ccccc3)ccc2c1Sc1ccccc1` [IIc, 6-(Benzylaminonmethyl)-3-phenylsulfanyl-1H-indole-2-carboxylic acid amide], the negative logarithm of the Ki (pKi) was 6.14.
Under `NC(=O)c1[nH]c2cc(CNCC=C(c3ccccc3)c3ccccc3)ccc2c1Sc1ccccc1` [IIan] stands less than 5.00.
Under `NC(=O)c1[nH]c2cc(CNCc3cc(F)cc(C(F)(F)F)c3)ccc2c1Sc1ccccc1` [IIn, 6-[(3-Fluoro-5-trifluoromethylbenzylamino)methyl]-3-phenylsulfanyl-1H-indole-2-carboxylic acid amide] stands 5.30.
As for `NC(=O)c1[nH]c2cc(CNCc3c4ccccc4c(Cl)c4ccccc34)ccc2c1Sc1ccccc1` [IIaf, 6-{[(10-Chloro-anthracen-9-ylmethyl)amino]methyl}-3-phenylsulfanyl-1H-indole-2-carboxylic acid amide], the figure is 5.32.
`NC(=O)c1[nH]c2cc(CNCc3ccc([N+](=O)[O-])cc3)ccc2c1Sc1ccccc1` [IId, 6-[(4-Nitrobenzylamino)methyl]-3-phenylsulfanyl-1H-indole-2-carboxylic acid amide] gave a pKi of 6.33. This pKi is 1.01 log units higher than that of the molecule before.
Under `COc1cc(C#N)c(NCc2ccc3[nH]c(C(N)=O)c(Sc4ccccc4)c3c2)cc1OC` [Iab, 5-[(2-Cyano-4,5-dimethoxyphenylamino)methyl]-3-phenylsulfanyl-1H-indole-2-carboxylic acid amide] stands less than 5.00.
Molecule `NC(=O)c1[nH]c2ccc(CN3CCOCC3)cc2c1Sc1ccccc1` [Ii, 5-Morpholin-4-ylmethyl-3-phenylsulfanyl-1H-indole-2-carboxylic acid amide] gave a negative-log Ki (pKi) of 6.62.
As for `Cc1ccccc1CNCc1ccc2c(Sc3ccccc3)c(C(N)=O)[nH]c2c1` [IIz, 6-[(2-Methylbenzylamino)methyl]-3-phenylsulfanyl-1H-indole-2-carboxylic acid amide], the figure is 6.24.
